From article PMC9785397, “Exploiting Conserved Quorum Sensing Signals in Streptococcus mutans and Streptococcus pneumoniae” (Microorganisms, 2022)
≈ marks a conversion by molar mass, not a printed value.

Columns and labels:
comD gene = experiment: qRT-PCR, comD gene expression; format: cell-based, Streptococcus mutans; conditions: CSP1 20 μM, planktonic, 8 h, qPCR
Description: (§1) S. mutans was cultured in BHI supplemented with peptides or the vehicle. Cultures were centrifuged, and total RNA was isolated and purified from the bacterial pellets using the GRS Total RNA Kit—Bacteria (GK16.0100; GRISP Research Solution, Porto, Portugal), following the manufacturer’s instructions. Purified RNA was subjected to DNase I treatment to remove contaminating DNA. The RNA yield and purity were assessed by measuring the absorbance, and only samples with a ratio of 260/280 nm in the 1.8–2 range were used. cDNA was generated using the cDNA RT kit with an RNAse inhibitor (Applied Biosystems; Monza, Milan). Quantitative PCR (qRT-PCR) was performed using SYBR green mixture (iScript One Step RT-PCR kit; Bio-Rad, Segrate, Milan) to determine the transcript levels of genes using the oligonucleotides listed in Table 3. The gyrA gene served as the housekeeping gene.

comE gene = experiment: qRT-PCR, comE gene expression; format: cell-based, Streptococcus mutans; conditions: CSP1 20 μM, planktonic, 8 h, qPCR
Description: as §1

S. sanguinis = experiment: microbe, parasite or virus in culture; format: cell-based, Streptococcus sanguinis; conditions: peptides 0–50 μM, 16 h, 37 °C, microaerophilic, A620 nm, three separate experiments
Source text: (§2) Streptococcus mutans Clarke (strain designation NCTC 10449), Pseudomonas aeruginosa (Schroeter) Migula (strain designation PAO1), Fusobacterium nucleatum, subspecies nucleatum (strain VPI 4355), and Porphyromonas gingivalis (strain 2561) were purchased from ATCC (LGC Standards Srl, Milan, Italy). Streptococcus mitis, Streptococcus oralis, and Streptococcus sanguinis were obtained from clinical isolates and characterized by morphological, biochemical, and molecular typing. S. mutans, S. mitis, S. oralis, and S. sanguinis were maintained in Brain Heart Infusion (BHI) broth or agar under microaerophilic conditions. P. aeruginosa was maintained in trypticase soy (TS) agar or broth. F. nucleatum was maintained in TS agar or broth with defibrinated sheep blood under anaerobic conditions. P. gingivalis was maintained in ATCC Medium 2722 supplemented with TS broth or agar under anaerobic conditions. Before the experiments, bacterial cultures were inoculated in fresh media (dilution 1:100) and grown for 16 h at 37 °C.
(§3) The antimicrobial activities of the tested peptides were assessed through the determination of the minimum inhibitory concentration (MIC) standardized by the Clinical and Laboratory Standards Institute. Bacterial inocula were diluted in 10 mL of MHB […]. The concentration of the bacteria was adjusted to 0.5 McFarland standard, and the bacteria were dispensed in 96-well microtiter plates (final bacterial concentration: 1 × 10^4 CFU/well). Peptides were dissolved in sterile water (stock concentration: 2 mM) and added at final concentrations ranging from 0 to 50 µM. Plates were incubated at 37 °C for 16 h. At the end of incubation, bacterial growth was recorded using a microplate reader (Varioskan Lux Reader; Thermo Fisher Scientific, Milan, Italy) by quantifying the adsorption at 620 nm. Cultures were then opportunely diluted and seeded on agar plates. Bacterial cultures inoculated with the highest final concentration of the vehicle (sterile water) or chlorhexidine hydrochloride salt (CHX, concentration range: 0.05 to 500 μg/mL; Merck, Milan, Italy) were included as controls in each test. Experiments were performed in triplicate.

[1] = system: S. mutans bacteriocin production against F. nucleatum; experiment: Bacteriocin overlay assay, S. mutans spotted on F. nucleatum; format: cell-based, Streptococcus mutans; conditions: CSP1 20 μM, 16 h, 37 °C, anaerobic
Description: (§4) During the formation of complex biofilm such as dental plaque, the ability of S. mutans to compete with other commensal species determines the success of the cariogenesis process. S. mutans uses antibacterial peptides, namely, bacteriocins, to overcome and subvert the composition of dental microbiota. We investigated the production of bacteriocins using the overlay assay. Overnight cultures of S. mitis, S. oralis, S. sanguinis, P. aeruginosa, F. nucleatum, or P. gingivalis were diluted 1:100 in BHI or TS broth and incubated at 37 °C until they reached an OD620 of 0.3. Cultures were added with agar (BD Difco^TM Agar) at the final concentration of 1.5% w/v and transferred in plates. Overnight cultures of S. mutans were diluted 1:100 in BHI and added with peptides (20 μM) or the vehicle with or without CSP1. Culture media were supplemented with agar to reach the final concentration of 0.7% w/v. The solutions were spotted on the surface of agar plates prepared as described above. […]
(§5) Spots (10 for each experimental group) were acquired and analyzed using NIH Image J software (version 1.53t August 2022, https://imagej.nih.gov/ij/index.html; accessed on 7 September 2022). The appearance of a clear area on the plate (bacterial growth inhibition) was evaluated as indicative of bacteriocin activity. The diameters of the area were measured in a blinded fashion.

[2] = system: S. mutans bacteriocin production against S. mitis; experiment: Bacteriocin overlay assay, S. mutans spotted on S. mitis; format: cell-based, Streptococcus mutans; conditions: CSP1 20 μM alone vs vehicle, 16 h, 37 °C, microaerophilic
Description: (§6) During the formation of complex biofilm such as dental plaque, the ability of S. mutans to compete with other commensal species determines the success of the cariogenesis process. S. mutans uses antibacterial peptides, namely, bacteriocins, to overcome and subvert the composition of dental microbiota. We investigated the production of bacteriocins using the overlay assay. Overnight cultures of S. mitis, S. oralis, S. sanguinis, P. aeruginosa, F. nucleatum, or P. gingivalis were diluted 1:100 in BHI or TS broth and incubated at 37 °C until they reached an OD620 of 0.3. Cultures were added with agar (BD Difco^TM Agar) at the final concentration of 1.5% w/v and transferred in plates. Overnight cultures of S. mutans were diluted 1:100 in BHI and added with peptides (20 μM) or the vehicle with or without CSP1. Culture media were supplemented with agar to reach the final concentration of 0.7% w/v. The solutions were spotted on the surface of agar plates prepared as described above. The plates were kept on the benchtop for 30 min, allowing the agar containing S. mutans to solidify, and then incubated at 37 °C for 16 h under microaerophilic or anaerobic conditions, as required.
as §5

comC gene = experiment: qRT-PCR, comC gene expression; format: cell-based, Streptococcus mutans; conditions: CSP1 20 μM, 8 h, qPCR
Description: as §1

[3] = system: S. mutans bacteriocin production against P. aeruginosa; experiment: Bacteriocin overlay assay, S. mutans spotted on P. aeruginosa; format: cell-based, Streptococcus mutans; conditions: CSP1 20 μM, microaerophilic, experimental control
Description: as §4, §5

[4] = system: S. mutans bacteriocin production against S. oralis; experiment: Bacteriocin overlay assay, S. mutans spotted on S. oralis; format: cell-based, Streptococcus mutans; conditions: CSP1 20 μM alone vs vehicle, 16 h, 37 °C, microaerophilic
Description: as §6, §5

S. oralis = experiment: microbe, parasite or virus in culture; format: cell-based, Streptococcus oralis; conditions: peptides 0–50 μM, 16 h, 37 °C, microaerophilic, A620 nm, three separate experiments
Source text: as §2, §3

bip gene = experiment: qRT-PCR, bip gene expression; format: cell-based, Streptococcus mutans; conditions: CSP1 20 μM vs vehicle, 2–24 h, maximum at 8 h, qPCR
Description: as §1

S. mutans = experiment: Bacterial growth kinetics; format: cell-based, Streptococcus mutans
Description: Peptides were further evaluated for their potential effect in altering the growth kinetics in S. mutans. Overnight bacterial cultures were collected, centrifuged, and suspended in fresh BHI broth at 10^8 CFU/mL. Bacteria were dispensed in sterile 96-well microtiter plates at a final concentration of 1 × 10^6 CFU/100 µL and cultured with peptides or the vehicle at 37 °C for 36 h. Bacterial growth kinetics were monitored by measuring the optical density at 620 nm at different time points using Varioskan Lux Reader (Thermo Fisher Scientific).

P. aeruginosa = experiment: microbe, parasite or virus in culture; format: cell-based, Pseudomonas aeruginosa; conditions: peptides 0–50 μM, 16 h, 37 °C, aerobic, A620 nm, three separate experiments
Source text: as §2, §3

P. gingivalis = experiment: microbe, parasite or virus in culture; format: cell-based, Porphyromonas gingivalis; conditions: peptides 0–50 μM, 16 h, 37 °C, anaerobic, A620 nm, three separate experiments
Source text: as §2, §3

For `CC[C@H](C)[C@H](NC(=O)[C@H](Cc1ccccc1)NC(=O)[C@H](CC(=O)O)NC(=O)[C@H](CCCNC(=N)N)NC(=O)[C@H](Cc1ccccc1)NC(=O)[C@H](Cc1ccccc1)NC(=O)[C@H](CCCCN)NC(=O)[C@H](CO)NC(=O)[C@H](CC(C)C)NC(=O)[C@H](CCCNC(=N)N)NC(=O)[C@H](CCSC)NC(=O)[C@@H](N)CCC(=O)O)C(=O)N[C@@H](CC(C)C)C(=O)N[C@@H](CCC(N)=O)C(=O)N[C@@H](CCCNC(=N)N)C(=O)N[C@@H](CCCCN)C(=O)N[C@@H](CCCCN)C(=O)O` [CSP1], the “Expression of comD in S. mutans” value (comD gene) was “increased the expression”, the “Expression of comE in S. mutans” value (comE gene) was “increased the expression” and the “Minimum inhibitory concentration (MIC), S. sanguinis” value (S. sanguinis) was 21 µM (≈ 47.1 µg/mL). The “Growth inhibition of F. nucleatum by S. mutans stimulated with peptide” value [1] was “inhibited the growth”, the “Growth inhibition of co-cultured S. mitis by S. mutans stimulated with peptide (diameter of clear area)” value [2] was “significantly inhibited the growth” and the “Expression of comC in S. mutans” value (comC gene) was “no effects”. The “Replication of P. aeruginosa in presence of S. mutans stimulated with peptide” value [3] was “not affected”, the “Growth inhibition of co-cultured S. oralis by S. mutans stimulated with peptide (diameter of clear area)” value [4] was “significantly inhibited the growth” and the “Minimum inhibitory concentration (MIC), S. oralis” value (S. oralis) was 25 µM (≈ 56.1 µg/mL). The “Expression of bip in S. mutans” value (bip gene) was “induced the expression”, the “Effect on the growth (growth kinetics) of S. mutans” value (S. mutans; 20 µM peptide, BHI broth, 37 °C, monitored 36 h, A620 nm, three experiments) was “no significant effects” and the “Colony counting of S. mutans after incubation with the peptide” value (S. mutans; 20 µM, data not shown) was “not affected”. The “Minimum inhibitory concentration (MIC), P. aeruginosa” value (P. aeruginosa) was greater than 50 µM and the “Minimum inhibitory concentration (MIC), P. gingivalis” value (P. gingivalis) was greater than 50 µM.
